This passage reports MIC and pKa results from ChEMBL document CHEMBL3603734, “Design and biological evaluation of novel quinolone-based metronidazole derivatives as potent Cu(2+) mediated DNA-targeting antibacterial agents” (Bioorg Med Chem Lett, 2015).

≈ marks a conversion by molar mass, not a printed value.

One data set relates to Bacillus. Description: Antibacterial activity against Bacillus proteus ATCC 13315 after 24 hrs by microbroth dilution method. Format: functional. The settings on record: ATCC 13315, 24 h. A general note: In broth dilution the organism is exposed to a series of concentrations in liquid medium.
The next data set concerns Pseudomonas aeruginosa. Description: Antibacterial activity against Pseudomonas aeruginosa ATCC 27853 after 24 hrs by microbroth dilution method. The class given is functional. The settings on record: ATCC 27853, 24 h.
The test system of the next data set is Salmonella enterica. Description: Antibacterial activity against Salmonella enterica ATCC 14028 after 24 hrs by microbroth dilution method. The class given is functional. To be noted: ATCC 14028, 24 h.
The next data set has as its system Bacillus spizizenii. Description: Antibacterial activity against Bacillus subtilis ATCC 6633 after 24 hrs by microbroth dilution method. The class given is functional. To be noted: ATCC 6633, 24 h.
The test system of another data set is Escherichia coli. Briefly: Antibacterial activity against Escherichia coli JM109 after 24 hrs by microbroth dilution method. To be noted: JM109, 24 h. The class given is functional.
For data set [1], the system named is Staphylococcus aureus. Briefly: Antibacterial activity against methicillin-resistant Staphylococcus aureus N315 after 24 hrs by microbroth dilution method. Format: functional. The settings on record: N315, 24 h.
For data set [2], the system named is Staphylococcus aureus. Description: Antibacterial activity against Staphylococcus aureus ATCC 25923 after 24 hrs by microbroth dilution method. The class given is functional. To be noted: ATCC 25923, 24 h.
For a further data set, the system named is Micrococcus luteus. Briefly: Antibacterial activity against Micrococcus luteus ATCC 4698 after 24 hrs by microbroth dilution method. To be noted: NCTC 2665, 24 h. The class given is functional.
Another data set deals with Cyberlindnera jadinii. Description: Antifungal activity against Candida utilis ATCC 9950 after 24 hrs by microbroth dilution method. The settings on record: Williopsis jadinii, ATCC 9950, 24 h. The class given is functional.
Another data set relates to Aspergillus flavus. Description: Antifungal activity against Aspergillus flavus ATCC 204304 after 24 hrs by microbroth dilution method. The class given is functional. The settings on record: ATCC 204304, 24 h.
Another data set deals with Saccharomyces cerevisiae. Briefly: Antifungal activity against Saccharomyces cerevisiae ATCC 9763 after 24 hrs by microbroth dilution method. The class given is functional. The settings on record: ATCC 9763, 24 h.
A further data set concerns Candida albicans. Briefly: Antifungal activity against Candida albicans ATCC 10231 after 24 hrs by microbroth dilution method. Format: functional. The settings on record: ATCC 10231, 24 h.
In the next data set the test system is Pichia norvegensis. Description: Antifungal activity against Candida mycoderma ATCC 9888 after 24 hrs by microbroth dilution method. Format: functional. The settings on record: ATCC 9888, 24 h.
Data set [3] can be described thus: Ionization constant, pKa of the compound by UV spectroscopic analysis. The class given is physicochemical.

By MIC is commonly meant the smallest concentration in the dilution series that meets the test's criterion for growth inhibition. For the compound `O=C(O)c1cn(C2CC2)c2cc(N3CCNCC3)c(F)cc2c1=O` [CIPROFLOXACIN], the MIC against Bacillus, in the data set on Pseudomonas aeruginosa, in the data set with Salmonella enterica and with Bacillus spizizenii was 1 µg/mL (≈ 3.02 µM) throughout.
`O=C(O)c1cn(C2CC2)c2c(Cl)c(NC3CCN(CC4CO4)C3)c(F)cc2c1=O` (stereo not drawn): the MIC stood at 0.5 µg/mL (≈ 1.19 µM) against Escherichia coli; 0.25 µg/mL (≈ 0.593 µM) against Bacillus; 0.5 µg/mL (≈ 1.19 µM) against Pseudomonas aeruginosa; 1 µg/mL (≈ 2.37 µM) against Salmonella enterica; 2 µg/mL (≈ 4.74 µM) with Staphylococcus aureus [1]; 0.5 µg/mL (≈ 1.19 µM) in the data set on Staphylococcus aureus [2]. Also, the MIC with Bacillus spizizenii is 0.25 µg/mL (≈ 0.593 µM); with Micrococcus luteus it was 0.25 µg/mL (≈ 0.593 µM); against Cyberlindnera jadinii, 0.5 µg/mL (≈ 1.19 µM); against Aspergillus flavus, 0.5 µg/mL (≈ 1.19 µM); with Saccharomyces cerevisiae, 0.25 µg/mL (≈ 0.593 µM); against Candida albicans it was 2 µg/mL (≈ 4.74 µM). In the data set on Pichia norvegensis, this compound showed an MIC of 2 µg/mL (≈ 4.74 µM).
The term pKa denotes the pH at which an ionisable group is half protonated. A low value points to a group that gives up its proton readily. For `CCn1cc(C(=O)O)c(=O)c2cc(F)c(N3CCN(CC(O)Cn4c(C)nc(N5CCOCC5)c4[N+](=O)[O-])CC3)cc21` (stereo not drawn), the MIC came out at 64 µg/mL (≈ 109 µM) in the data set on Escherichia coli; 32 µg/mL (≈ 54.5 µM) in the data set with Bacillus; 2 µg/mL (≈ 3.4 µM) in the data set with Pseudomonas aeruginosa; 32 µg/mL (≈ 54.5 µM) against Salmonella enterica; 4 µg/mL (≈ 6.81 µM) in the data set on Staphylococcus aureus [1]; 32 µg/mL (≈ 54.5 µM) with Staphylococcus aureus [2]. Moreover, the MIC was 16 µg/mL (≈ 27.2 µM) in the data set on Bacillus spizizenii; 8 µg/mL (≈ 13.6 µM) in the data set on Micrococcus luteus; 16 µg/mL (≈ 27.2 µM) against Cyberlindnera jadinii; 16 µg/mL (≈ 27.2 µM) in the data set with Aspergillus flavus; 16 µg/mL (≈ 27.2 µM) in the data set on Saccharomyces cerevisiae; 16 µg/mL (≈ 27.2 µM) against Candida albicans. The compound also displayed an MIC in the data set on Pichia norvegensis of 64 µg/mL (≈ 109 µM). In addition, in [3], the pKa was determined as 6.64.
With `Cc1nc(N2CCOCC2)c([N+](=O)[O-])n1CC(O)CNC1CCN(c2c(F)cc3c(=O)c(C(=O)O)cn(C4CC4)c3c2Cl)C1` (stereo not drawn), the MIC turned out to be 0.5 µg/mL (≈ 0.789 µM) with Escherichia coli; 0.25 µg/mL (≈ 0.394 µM) in the data set on Bacillus; 0.25 µg/mL (≈ 0.394 µM) against Pseudomonas aeruginosa; 2 µg/mL (≈ 3.15 µM) with Salmonella enterica; 0.25 µg/mL (≈ 0.394 µM) with Staphylococcus aureus [1]; 0.5 µg/mL (≈ 0.789 µM) in the data set with Staphylococcus aureus [2]. In addition, the MIC against Bacillus spizizenii amounted to 4 µg/mL (≈ 6.31 µM); against Micrococcus luteus it was 2 µg/mL (≈ 3.15 µM); against Cyberlindnera jadinii, 0.5 µg/mL (≈ 0.789 µM); in the data set on Aspergillus flavus, 1 µg/mL (≈ 1.58 µM); against Saccharomyces cerevisiae, 1 µg/mL (≈ 1.58 µM); in the data set on Candida albicans, 2 µg/mL (≈ 3.15 µM). For the same compound, the MIC against Pichia norvegensis came to 16 µg/mL (≈ 25.2 µM). In data set [3], this compound returned a pKa of 6.57.
In the case of `CCn1cc(C(=O)O)c(=O)c2cc(F)c(N3CCN(CC(O)Cn4c([N+](=O)[O-])cnc4C)CC3)cc21` (stereo not drawn), the MIC in the data set with Escherichia coli is 32 µg/mL (≈ 63.7 µM); with Bacillus, 16 µg/mL (≈ 31.8 µM); with Pseudomonas aeruginosa, 2 µg/mL (≈ 3.98 µM); against Salmonella enterica, 16 µg/mL (≈ 31.8 µM); with Staphylococcus aureus [1], 4 µg/mL (≈ 7.96 µM); in the data set with Staphylococcus aureus [2] it was 16 µg/mL (≈ 31.8 µM). Moreover, the minimal inhibitory concentration (MIC) with Bacillus spizizenii worked out at 16 µg/mL (≈ 31.8 µM); in the data set with Micrococcus luteus, 16 µg/mL (≈ 31.8 µM); against Cyberlindnera jadinii, 64 µg/mL (≈ 127 µM); in the data set with Aspergillus flavus, 32 µg/mL (≈ 63.7 µM); against Saccharomyces cerevisiae, 32 µg/mL (≈ 63.7 µM); against Candida albicans, 128 µg/mL (≈ 255 µM). This compound displayed an MIC against Pichia norvegensis of 64 µg/mL (≈ 127 µM). For the same compound, the pKa in data set [3] came to 6.57.
For the compound `NC1CCN(c2c(F)cc3c(=O)c(C(=O)O)cn(C4CC4)c3c2Cl)C1` (stereo not drawn) [CLINAFLOXACIN], the minimum inhibitory concentration (MIC) against Escherichia coli stood at 1 µg/mL (≈ 2.73 µM); in the data set on Bacillus it was 0.5 µg/mL (≈ 1.37 µM); against Pseudomonas aeruginosa, 1 µg/mL (≈ 2.73 µM); against Salmonella enterica, 1 µg/mL (≈ 2.73 µM); in the data set with Staphylococcus aureus [1], 1 µg/mL (≈ 2.73 µM); with Staphylococcus aureus [2], 0.5 µg/mL (≈ 1.37 µM). Moreover, the MIC in the data set on Bacillus spizizenii and against Micrococcus luteus was 0.5 µg/mL (≈ 1.37 µM) throughout.
On to `CCn1cc(C(=O)O)c(=O)c2cc(F)c(N3CCN(CC4CO4)CC3)cc21` (stereo not drawn), for which the MIC in the data set with Escherichia coli is 2 µg/mL (≈ 5.33 µM); in the data set on Bacillus, 4 µg/mL (≈ 10.7 µM); with Pseudomonas aeruginosa it was 16 µg/mL (≈ 42.6 µM); with Salmonella enterica it was 16 µg/mL (≈ 42.6 µM); against Staphylococcus aureus [1] it was 2 µg/mL (≈ 5.33 µM); in the data set with Staphylococcus aureus [2] it was 8 µg/mL (≈ 21.3 µM). Besides, the MIC in the data set on Bacillus spizizenii was determined as 64 µg/mL (≈ 170 µM); with Micrococcus luteus, 8 µg/mL (≈ 21.3 µM); in the data set on Cyberlindnera jadinii, 8 µg/mL (≈ 21.3 µM); with Aspergillus flavus it was 1 µg/mL (≈ 2.66 µM); against Saccharomyces cerevisiae, 1 µg/mL (≈ 2.66 µM); against Candida albicans, 4 µg/mL (≈ 10.7 µM). The compound further returned an MIC in the data set on Pichia norvegensis of 1 µg/mL (≈ 2.66 µM).
With `O=C(O)c1cn(C2CC2)c2cc(N3CCN(CC4CO4)CC3)c(F)cc2c1=O` (stereo not drawn), the MIC against Escherichia coli was found to be 1 µg/mL (≈ 2.58 µM); in the data set with Bacillus, 4 µg/mL (≈ 10.3 µM); in the data set with Pseudomonas aeruginosa, 2 µg/mL (≈ 5.16 µM); against Salmonella enterica, 2 µg/mL (≈ 5.16 µM); in the data set with Staphylococcus aureus [1] it was 1 µg/mL (≈ 2.58 µM); against Staphylococcus aureus [2], 4 µg/mL (≈ 10.3 µM). The MIC against Bacillus spizizenii worked out at 8 µg/mL (≈ 20.6 µM); in the data set with Micrococcus luteus, 2 µg/mL (≈ 5.16 µM); with Cyberlindnera jadinii it was 2 µg/mL (≈ 5.16 µM); against Aspergillus flavus it was 1 µg/mL (≈ 2.58 µM); against Saccharomyces cerevisiae it was 1 µg/mL (≈ 2.58 µM); in the data set with Candida albicans, 2 µg/mL (≈ 5.16 µM). In the data set on Pichia norvegensis, the MIC was found to be 1 µg/mL (≈ 2.58 µM).
